Results reported in the kinase profiling compilation of Christmann-Franck et al. (2016).

Columns and labels:
Assay in all cases: radiometric filter-binding kinase assay, Kinase HotSpot
Conditions in all cases: compound 0.5 µM; ATP 10 µM
[1] = target: ADRBK2 (human) (UniProt P35626)
[2] = target: AKT1 (human) (UniProt P31749)
[3] = target: CAMKK2 (human) (UniProt Q96RR4)
[4] = target: CDK4 CCND1 (human) (UniProt P24385+P11802)
[5] = target: CLK3 (human) (UniProt P49761)
[6] = target: CSNK1A1 (human) (UniProt P48729)
[7] = target: CSNK1E (human) (UniProt P49674)
[8] = target: CSNK2A2 (human) (UniProt P19784)
[9] = target: DYRK3 (human) (UniProt O43781)
[10] = target: EPHA5 (human) (UniProt P54756)
[11] = target: EPHA8 (human) (UniProt P29322)
[12] = target: EPHB2 (human) (UniProt P29323)
[13] = target: ERBB4 (human) (UniProt Q15303)
[14] = target: FLT1 (human) (UniProt P17948)
[15] = target: GRK4 (human) (UniProt P32298)
[16] = target: IKBKB (human) (UniProt O14920)
[17] = target: IKBKE (human) (UniProt Q14164)
[18] = target: INSR (human) (UniProt P06213)
[19] = target: KDR (human) (UniProt P35968)
[20] = target: MAP3K14 (human) (UniProt Q99558)
[21] = target: MAP3K7 TAB1 (human) (UniProt O43318+Q15750)
[22] = target: MAP4K4 (human) (UniProt O95819)
[23] = target: MAP4K5 (human) (UniProt Q9Y4K4)
[24] = target: MAPKAPK2 (human) (UniProt P49137)
[25] = target: MLTK (human) (UniProt Q9NYL2)
[26] = target: MUSK (human) (UniProt O15146)
[27] = target: MYLK2 (human) (UniProt Q9H1R3)
[28] = target: NEK11 (human) (UniProt Q8NG66)
[29] = target: PAK3 (human) (UniProt O75914)
[30] = target: PASK (human) (UniProt Q96RG2)
[31] = target: PDGFRB (human) (UniProt P09619)
[32] = target: PKN1 (human) (UniProt Q16512)
[33] = target: PLK2 (human) (UniProt Q9NYY3)
[34] = target: PRKACA (human) (UniProt P17612)
[35] = target: PRKCA (human) (UniProt P17252)
[36] = target: PRKCG (human) (UniProt P05129)
[37] = target: PRKD3 (human) (UniProt O94806)
[38] = target: RAF1 (human) (UniProt P04049)
[39] = target: RET (human) (UniProt P07949)
[40] = target: RPS6KA5 KD2 (human) (UniProt O75582)
[41] = target: STK11 (human) (UniProt Q15831)
[42] = target: TSSK2 (human) (UniProt Q96PF2)

Chain of NEK11 (human) (Q8NG66 whole entry, looked up): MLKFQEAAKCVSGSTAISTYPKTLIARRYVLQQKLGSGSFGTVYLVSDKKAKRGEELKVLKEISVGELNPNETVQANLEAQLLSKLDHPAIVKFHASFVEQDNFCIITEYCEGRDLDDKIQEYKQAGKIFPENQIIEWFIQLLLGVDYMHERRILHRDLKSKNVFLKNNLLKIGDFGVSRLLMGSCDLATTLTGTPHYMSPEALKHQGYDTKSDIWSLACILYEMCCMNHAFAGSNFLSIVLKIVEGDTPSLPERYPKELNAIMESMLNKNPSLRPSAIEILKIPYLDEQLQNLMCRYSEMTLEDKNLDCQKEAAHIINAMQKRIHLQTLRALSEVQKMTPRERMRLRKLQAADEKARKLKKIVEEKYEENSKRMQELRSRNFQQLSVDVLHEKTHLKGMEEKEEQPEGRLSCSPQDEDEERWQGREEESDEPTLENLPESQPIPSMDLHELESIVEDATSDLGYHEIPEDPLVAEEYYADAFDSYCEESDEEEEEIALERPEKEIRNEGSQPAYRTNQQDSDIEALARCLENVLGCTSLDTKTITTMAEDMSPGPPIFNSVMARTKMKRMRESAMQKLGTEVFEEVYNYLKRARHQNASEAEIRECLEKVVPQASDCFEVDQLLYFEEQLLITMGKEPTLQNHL
Chain of PLK2 (human) (Q9NYY3 whole entry, looked up): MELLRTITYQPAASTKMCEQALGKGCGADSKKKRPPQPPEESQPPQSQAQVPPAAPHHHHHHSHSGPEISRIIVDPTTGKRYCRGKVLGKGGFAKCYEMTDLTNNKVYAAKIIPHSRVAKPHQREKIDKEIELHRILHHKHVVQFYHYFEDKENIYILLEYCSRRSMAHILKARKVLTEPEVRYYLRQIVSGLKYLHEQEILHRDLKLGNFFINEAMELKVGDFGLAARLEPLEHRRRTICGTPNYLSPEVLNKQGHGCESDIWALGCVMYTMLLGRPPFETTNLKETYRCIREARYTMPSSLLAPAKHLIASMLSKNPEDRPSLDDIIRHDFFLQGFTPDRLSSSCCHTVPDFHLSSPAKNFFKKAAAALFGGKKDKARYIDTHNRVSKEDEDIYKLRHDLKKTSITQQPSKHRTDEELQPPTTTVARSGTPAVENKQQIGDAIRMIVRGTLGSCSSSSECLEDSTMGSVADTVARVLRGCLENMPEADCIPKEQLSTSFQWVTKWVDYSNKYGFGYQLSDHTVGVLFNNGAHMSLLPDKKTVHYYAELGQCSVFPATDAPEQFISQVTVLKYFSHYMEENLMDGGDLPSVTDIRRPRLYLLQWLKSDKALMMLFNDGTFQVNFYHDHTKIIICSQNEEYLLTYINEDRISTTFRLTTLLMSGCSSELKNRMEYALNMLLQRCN
Chain of KDR (human) (P35968 whole entry, looked up): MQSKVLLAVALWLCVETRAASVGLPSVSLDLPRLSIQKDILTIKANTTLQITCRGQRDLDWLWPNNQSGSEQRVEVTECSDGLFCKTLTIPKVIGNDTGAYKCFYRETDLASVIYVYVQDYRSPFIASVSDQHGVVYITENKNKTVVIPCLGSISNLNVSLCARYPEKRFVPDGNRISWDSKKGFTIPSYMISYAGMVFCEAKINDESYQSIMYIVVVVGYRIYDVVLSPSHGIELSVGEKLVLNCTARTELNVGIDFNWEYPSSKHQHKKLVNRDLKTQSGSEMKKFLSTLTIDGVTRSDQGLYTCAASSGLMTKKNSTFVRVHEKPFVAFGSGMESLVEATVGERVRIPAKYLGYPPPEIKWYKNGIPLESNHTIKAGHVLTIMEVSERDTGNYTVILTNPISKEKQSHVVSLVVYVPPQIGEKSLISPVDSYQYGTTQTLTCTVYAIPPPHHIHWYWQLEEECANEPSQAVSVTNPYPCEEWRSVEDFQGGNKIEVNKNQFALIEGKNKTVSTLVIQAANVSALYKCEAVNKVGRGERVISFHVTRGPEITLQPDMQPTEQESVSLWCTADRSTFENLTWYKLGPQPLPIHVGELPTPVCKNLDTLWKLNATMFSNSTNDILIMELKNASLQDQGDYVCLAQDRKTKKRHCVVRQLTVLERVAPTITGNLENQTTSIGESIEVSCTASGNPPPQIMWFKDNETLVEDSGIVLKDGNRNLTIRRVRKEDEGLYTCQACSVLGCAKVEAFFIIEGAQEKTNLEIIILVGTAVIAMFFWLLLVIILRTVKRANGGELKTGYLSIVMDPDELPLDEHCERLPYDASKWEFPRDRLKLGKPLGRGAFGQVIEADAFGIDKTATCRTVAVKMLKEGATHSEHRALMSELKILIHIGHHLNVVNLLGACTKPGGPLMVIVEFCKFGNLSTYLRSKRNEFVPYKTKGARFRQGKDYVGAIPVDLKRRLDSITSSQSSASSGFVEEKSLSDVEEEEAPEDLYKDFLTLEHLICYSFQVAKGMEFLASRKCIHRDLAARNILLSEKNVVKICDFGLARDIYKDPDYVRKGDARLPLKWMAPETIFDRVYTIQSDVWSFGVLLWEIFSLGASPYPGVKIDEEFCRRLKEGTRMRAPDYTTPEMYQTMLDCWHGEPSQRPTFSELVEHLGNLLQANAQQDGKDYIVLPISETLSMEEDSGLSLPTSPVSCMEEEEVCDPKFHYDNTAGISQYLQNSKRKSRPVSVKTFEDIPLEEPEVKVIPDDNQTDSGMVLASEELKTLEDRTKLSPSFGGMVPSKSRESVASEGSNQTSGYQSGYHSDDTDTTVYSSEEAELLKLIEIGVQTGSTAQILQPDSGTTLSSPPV
Chain of CAMKK2 (human) (Q96RR4 whole entry, looked up): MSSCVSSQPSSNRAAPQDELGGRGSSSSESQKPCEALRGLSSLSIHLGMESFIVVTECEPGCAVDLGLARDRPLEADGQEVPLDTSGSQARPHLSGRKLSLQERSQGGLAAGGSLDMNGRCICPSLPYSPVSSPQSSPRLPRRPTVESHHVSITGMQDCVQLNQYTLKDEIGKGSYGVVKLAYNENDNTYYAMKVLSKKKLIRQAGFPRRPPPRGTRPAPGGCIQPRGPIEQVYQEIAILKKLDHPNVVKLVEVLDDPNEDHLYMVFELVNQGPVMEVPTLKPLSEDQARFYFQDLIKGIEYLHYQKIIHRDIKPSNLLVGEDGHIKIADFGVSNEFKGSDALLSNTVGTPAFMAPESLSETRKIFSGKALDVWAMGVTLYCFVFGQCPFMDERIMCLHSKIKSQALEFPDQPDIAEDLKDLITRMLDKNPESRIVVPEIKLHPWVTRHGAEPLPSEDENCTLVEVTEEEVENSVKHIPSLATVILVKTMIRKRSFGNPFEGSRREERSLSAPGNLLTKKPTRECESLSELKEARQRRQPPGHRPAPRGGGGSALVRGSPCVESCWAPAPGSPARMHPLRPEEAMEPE
Chain of STK11 (human) (Q15831 whole entry, looked up): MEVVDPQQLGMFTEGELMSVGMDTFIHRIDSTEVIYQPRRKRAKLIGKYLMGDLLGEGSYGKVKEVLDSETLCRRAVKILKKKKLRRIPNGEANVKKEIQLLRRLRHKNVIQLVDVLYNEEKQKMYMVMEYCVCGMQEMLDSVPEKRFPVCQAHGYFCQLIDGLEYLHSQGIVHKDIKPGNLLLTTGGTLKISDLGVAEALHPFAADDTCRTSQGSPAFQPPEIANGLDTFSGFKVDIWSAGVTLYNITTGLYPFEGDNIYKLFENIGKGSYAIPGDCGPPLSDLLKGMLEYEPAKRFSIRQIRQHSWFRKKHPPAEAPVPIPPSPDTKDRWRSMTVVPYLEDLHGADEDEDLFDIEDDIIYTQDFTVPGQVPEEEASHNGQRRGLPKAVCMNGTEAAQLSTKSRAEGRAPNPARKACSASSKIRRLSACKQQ
Chain of PAK3 (human) (O75914 whole entry, looked up): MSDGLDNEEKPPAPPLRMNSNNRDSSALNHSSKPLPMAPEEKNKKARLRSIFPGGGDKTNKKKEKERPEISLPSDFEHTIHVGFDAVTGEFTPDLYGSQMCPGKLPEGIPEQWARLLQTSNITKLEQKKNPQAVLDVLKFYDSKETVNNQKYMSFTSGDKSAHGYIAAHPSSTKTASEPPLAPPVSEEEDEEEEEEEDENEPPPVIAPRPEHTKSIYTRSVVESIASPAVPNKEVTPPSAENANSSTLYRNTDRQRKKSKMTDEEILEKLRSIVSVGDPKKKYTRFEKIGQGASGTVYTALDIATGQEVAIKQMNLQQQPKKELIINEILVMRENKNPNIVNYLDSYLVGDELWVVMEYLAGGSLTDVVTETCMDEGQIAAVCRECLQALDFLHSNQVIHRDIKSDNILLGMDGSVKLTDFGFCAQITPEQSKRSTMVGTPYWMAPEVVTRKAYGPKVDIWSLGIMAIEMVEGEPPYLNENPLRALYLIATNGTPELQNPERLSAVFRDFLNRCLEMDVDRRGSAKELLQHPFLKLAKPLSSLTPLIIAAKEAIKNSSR

c1ccc(-c2n[nH]cc2-c2ccnc3ccccc23)nc1
residual activity [1]: 103%
residual activity [2]: 100%
residual activity [3]: 97%
residual activity [4]: 101%
residual activity [5]: 105%
residual activity [6]: 74.6%
residual activity [7]: 53.9%
residual activity [8]: 96.7%
residual activity [9]: 104%
residual activity [10]: 94.9%
residual activity [11]: 94.6%
residual activity [12]: 103%
residual activity [13]: 85.7%
residual activity [14]: 81.4%
residual activity [15]: 94.3%
residual activity [16]: 105%
residual activity [17]: 101%
residual activity [18]: 86.7%
residual activity [19]: 103%
residual activity [20]: 116%
residual activity [21]: 98.4%
residual activity [22]: 48.3%
residual activity [23]: 87.4%
residual activity [24]: 100%
residual activity [25]: 78%
residual activity [26]: 93.4%
residual activity [27]: 98.3%
residual activity [28]: 91.8%
residual activity [29]: 99.7%
residual activity [30]: 77.1%
residual activity [31]: 106%
residual activity [32]: 100%
residual activity [33]: 98.9%
residual activity [34]: 107%
residual activity [35]: 98.5%
residual activity [36]: 117%
residual activity [37]: 56.1%
residual activity [38]: 89.5%
residual activity [39]: 93.8%
residual activity [40]: 102%
residual activity [41]: 82.6%
residual activity [42]: 83.5%

Nc1ccc2ncnc(NCCc3ccc(Oc4ccccc4)cc3)c2c1
residual activity [1]: 97.9%
residual activity [2]: 98.2%
residual activity [3]: 92.6%
residual activity [4]: 102%
residual activity [5]: 117%
residual activity [6]: 102%
residual activity [7]: 148%
residual activity [8]: 103%
residual activity [9]: 89.6%
residual activity [10]: 102%
residual activity [11]: 101%
residual activity [12]: 97.7%
residual activity [13]: 70.2%
residual activity [14]: 96%
residual activity [15]: 99.6%
residual activity [16]: 100%
residual activity [17]: 95.6%
residual activity [18]: 103%
residual activity [19]: 91.7%
residual activity [20]: 109%
residual activity [21]: 96.2%
residual activity [22]: 99.2%
residual activity [23]: 94.8%
residual activity [24]: 108%
residual activity [25]: 102%
residual activity [26]: 102%
residual activity [27]: 97.6%
residual activity [28]: 105%
residual activity [29]: 102%
residual activity [30]: 103%
residual activity [31]: 105%
residual activity [32]: 105%
residual activity [33]: 102%
residual activity [34]: 88.6%
residual activity [35]: 103%
residual activity [36]: 95.2%
residual activity [37]: 98.1%
residual activity [38]: 98.2%
residual activity [39]: 101%
residual activity [40]: 98.3%
residual activity [41]: 97.6%
residual activity [42]: 94.5%
